Experiments:
crabgrass, large = experiment: Test A preemergence; type: in vivo, Digitaria sanguinalis; settings: preemergence
How it was run: (§1)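 Visual injury ratings, 0 = no effect to 100 = complete control, taken about 10 days after treatment against untreated controls. Test chemicals, in a non-phytotoxic surfactant-containing solvent, were sprayed onto soil preemergence or onto one- to two-leaf plants (2–10 cm) postemergence, in loam–sand soil under greenhouse conditions.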

wheat = experiment: Test A preemergence; type: in vivo, Triticum aestivum; settings: preemergence
How it was run: as §1

morningglory = experiment: Test A postemergence; type: in vivo, Ipomoea spp.
How it was run: as §1

ragweed [1] = experiment: Test C preemergence; type: in vivo, Ambrosia elation; settings: for Plant response rating (scale of 0 to 100), Ragweed: Preemergence, 250 g ai/ha
How it was run: (§2)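 Greenhouse pot test: preemergence application onto freshly seeded loam/sand mix, postemergence application onto seedlings (1–4 leaves, 2–18 cm) in peat-vermiculite substrate. Responses scored visually 13 to 15 days later relative to controls, where 0 means no effect and 100 means complete control; a dash indicates no result.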

soybean [2] = experiment: Test C preemergence; type: in vivo, Glycine max; settings: for Plant response rating (scale of 0 to 100), Soybean: Preemergence, 250 g ai/ha
How it was run: as §2

barnyardgrass = experiment: Test C preemergence; type: in vivo, Echinochloa crus-galli; settings: for Plant response rating (scale of 0 to 100), Barnyardgrass: Preemergence, 250 g ai/ha
How it was run: as §2

waterhemp = experiment: Test C preemergence; type: in vivo, Amaranthus rudis; settings: for Plant response rating (scale of 0 to 100), Waterhemp: Preemergence, 250 g ai/ha
How it was run: as §2

velvetleaf = experiment: Test C preemergence; type: in vivo, Abutilon theophrasti; settings: for Plant response rating (scale of 0 to 100), Velvetleaf: Preemergence, 250 g ai/ha
How it was run: as §2

ryegrass, Italian = experiment: Test C postemergence; type: in vivo, Lolium multiflorum; settings: for Plant response rating (scale of 0 to 100 where 0 is no effect and 100 is complete control), Ryegrass, Italian: Postemergence, 31 g ai/ha, visually evaluated after 13 to 15 days; for Ryegrass, Italian plant response rating / Plant response rating, Ryegrass, Italian: postemergence; for Ryegrass, Italian plant response rating: 62 g ai/ha, scale 0 to 100
How it was run: as §2

corn = experiment: Test C postemergence; type: in vivo, Zea mays; settings: for Plant response rating (scale of 0 to 100 where 0 is no effect and 100 is complete control), Corn: Postemergence, 31 g ai/ha, visually evaluated after 13 to 15 days; for Corn plant response rating / Plant response rating, Corn: postemergence; for Corn plant response rating: 62 g ai/ha, scale 0 to 100
How it was run: as §2

foxtail, giant = experiment: Test C postemergence; type: in vivo, Setaria faberii; settings: for Plant response rating (scale of 0 to 100 where 0 is no effect and 100 is complete control), Foxtail, Giant: Postemergence, 31 g ai/ha, visually evaluated after 13 to 15 days; for Foxtail, Giant plant response rating / Plant response rating, Foxtail, Giant: postemergence; for Foxtail, Giant plant response rating: 62 g ai/ha, scale 0 to 100
How it was run: as §2

johnsongrass = experiment: Test C postemergence; type: in vivo, Sorghum halepense; settings: for Plant response rating (scale of 0 to 100 where 0 is no effect and 100 is complete control), Johnsongrass: Postemergence, 31 g ai/ha, visually evaluated after 13 to 15 days; for Johnsongrass plant response rating / Plant response rating, Johnsongrass: postemergence; for Johnsongrass plant response rating: 62 g ai/ha, scale 0 to 100
How it was run: as §2

nutsedge, yellow = experiment: Test C postemergence; type: in vivo, Cyperus esculentus; settings: for Plant response rating (scale of 0 to 100 where 0 is no effect and 100 is complete control), Nutsedge, Yellow: Postemergence, 31 g ai/ha, visually evaluated after 13 to 15 days; for Nutsedge, Yellow plant response rating / Plant response rating, Nutsedge, Yellow: postemergence; for Nutsedge, Yellow plant response rating: 62 g ai/ha, scale 0 to 100
How it was run: as §2

ragweed [3] = experiment: Test C postemergence; type: in vivo, Ambrosia elation; settings: for Plant response rating (scale of 0 to 100 where 0 is no effect and 100 is complete control), Ragweed: Postemergence, 31 g ai/ha, visually evaluated after 13 to 15 days; for Ragweed plant response rating / Plant response rating, Ragweed: postemergence; for Ragweed plant response rating: 62 g ai/ha, scale 0 to 100
How it was run: as §2

soybean [4] = experiment: Test C postemergence; type: in vivo, Glycine max; settings: for Plant response rating (scale of 0 to 100 where 0 is no effect and 100 is complete control), Soybean: Postemergence, 31 g ai/ha, visually evaluated after 13 to 15 days; for Soybean plant response rating / Plant response rating, Soybean: postemergence; for Soybean plant response rating: 62 g ai/ha, scale 0 to 100
How it was run: as §2

oilseed rape = experiment: Test C postemergence; type: in vivo, Brassica napus; settings: for Plant response rating (scale of 0 to 100 where 0 is no effect and 100 is complete control), Oilseed Rape: Postemergence, 31 g ai/ha, visually evaluated after 13 to 15 days; for Oilseed Rape plant response rating / Plant response rating, Oilseed Rape: postemergence; for Oilseed Rape plant response rating: 62 g ai/ha, scale 0 to 100
How it was run: as §2

[5] = 125 g ai/ha, visual injury, 0 to 100 scale, approx. 10 days
[6] = 500 g ai/ha, visual injury after approx. 10 days, 0 to 100 scale (0 no effect, 100 complete control)
[7] = Postemergence, 500 g ai/ha, visual rating after approx. 10 days, 0 to 100 scale (0 no effect, 100 complete control)
[8] = postemergence, 125 g ai/ha, about 10 days, visual rating on 0 to 100 scale (0 no effect, 100 complete control)
[9] = preemergence, 31 g ai/ha, visual rating, scale 0 to 100 (0 no effect, 100 complete control), 13 to 15 days
[10] = preemergence, 62 g ai/ha, 13 to 15 days, scale 0 to 100, 0 = no effect, 100 = complete control
[11] = preemergence, 125 g ai/ha, scale 0 to 100, 0 is no effect, 100 is complete control
[12] = preemergence, 31 g ai/ha, scale 0 to 100 (0 no effect, 100 complete control), 13 to 15 days
[13] = 250 g ai/ha, scale 0 to 100 (0 no effect, 100 complete control)
[14] = 125 g ai/ha, scale 0 to 100, 0 no effect, 100 complete control
[15] = preemergence, 62 g ai/ha, scale 0 to 100 (0 no effect, 100 complete control), 13 to 15 days

## CCOc1cc(C(=O)NCC(F)(F)F)nn1Cc1ccnc(C(F)(F)F)c1 [Compound 104]
crabgrass, large; [5]
  Crabgrass, Large plant response rating: 100
crabgrass, large; [6]
  Crabgrass, Large plant response rating: 100
wheat; [5]
  Wheat plant response rating: 90
wheat; [6]
  Wheat plant response rating: 100
morningglory; [7]
  Morningglory plant response rating: 100
morningglory; [8]
  Morningglory plant response rating: 100
Ragweed [1]
  Plant response rating (scale of 0 to 100), Ragweed: 100
Ragweed [1]; [9]
  Ragweed plant response rating: 98
Ragweed [1]; [10]
  Plant response rating, Ragweed: 100
Ragweed [1]; [11]
  Ragweed plant response rating: 100
Soybean [2]
  Plant response rating (scale of 0 to 100), Soybean: 98
Soybean [2]; [9]
  Soybean plant response rating: 85
Soybean [2]; [10]
  Plant response rating, Soybean: 95
Soybean [2]; [11]
  Soybean plant response rating: 98
barnyardgrass
  Plant response rating (scale of 0 to 100), Barnyardgrass: 100
barnyardgrass; [12]
  Barnyardgrass plant response rating: 100
barnyardgrass; [10]
  Plant response rating, Barnyardgrass: 100
barnyardgrass; [11]
  Barnyardgrass plant response rating: 100
waterhemp
  Plant response rating (scale of 0 to 100), Waterhemp: 100
waterhemp; [9]
  Waterhemp plant response rating: 100
waterhemp; [10]
  Plant response rating, Waterhemp: 100
waterhemp; [11]
  Waterhemp plant response rating: 100
velvetleaf
  Plant response rating (scale of 0 to 100), Velvetleaf: 100
velvetleaf; [9]
  Velvetleaf plant response rating: 100
velvetleaf; [10]
  Plant response rating, Velvetleaf: 100
velvetleaf; [11]
  Velvetleaf plant response rating: 100
ryegrass, Italian
  Plant response rating (scale of 0 to 100 where 0 is no effect and 100 is complete control), Ryegrass, Italian: 5
  Ryegrass, Italian plant response rating: 5
ryegrass, Italian; [13]
  Plant response rating, Ryegrass, Italian: 80
ryegrass, Italian; [14]
  Plant response rating, Ryegrass, Italian: 35
corn
  Plant response rating (scale of 0 to 100 where 0 is no effect and 100 is complete control), Corn: 5
  Corn plant response rating: 35
corn; [13]
  Plant response rating, Corn: 95
corn; [14]
  Plant response rating, Corn: 35
foxtail, giant
  Plant response rating (scale of 0 to 100 where 0 is no effect and 100 is complete control), Foxtail, Giant: 5
  Foxtail, Giant plant response rating: 85
foxtail, giant; [13]
  Plant response rating, Foxtail, Giant: 98
foxtail, giant; [14]
  Plant response rating, Foxtail, Giant: 90
johnsongrass
  Plant response rating (scale of 0 to 100 where 0 is no effect and 100 is complete control), Johnsongrass: 5
  Johnsongrass plant response rating: 15
johnsongrass; [13]
  Plant response rating, Johnsongrass: 85
johnsongrass; [14]
  Plant response rating, Johnsongrass: 40
nutsedge, yellow
  Plant response rating (scale of 0 to 100 where 0 is no effect and 100 is complete control), Nutsedge, Yellow: 5
  Nutsedge, Yellow plant response rating: 5
nutsedge, yellow; [13]
  Plant response rating, Nutsedge, Yellow: 60
nutsedge, yellow; [14]
  Plant response rating, Nutsedge, Yellow: 10
Ragweed [3]
  Plant response rating (scale of 0 to 100 where 0 is no effect and 100 is complete control), Ragweed: 85
  Ragweed plant response rating: 85
Ragweed [3]; [13]
  Plant response rating, Ragweed: 95
Ragweed [3]; [14]
  Plant response rating, Ragweed: 95
Soybean [4]
  Plant response rating (scale of 0 to 100 where 0 is no effect and 100 is complete control), Soybean: 90
  Soybean plant response rating: 95
Soybean [4]; [13]
  Plant response rating, Soybean: 95
Soybean [4]; [14]
  Plant response rating, Soybean: 95
Oilseed rape
  Plant response rating (scale of 0 to 100 where 0 is no effect and 100 is complete control), Oilseed Rape: 40
  Oilseed Rape plant response rating: 50
Oilseed rape; [13]
  Plant response rating, Oilseed Rape: 85
Oilseed rape; [14]
  Plant response rating, Oilseed Rape: 60

## CCCc1cc(C(=O)NCC(F)(F)F)nn1Cc1ccnc(C(F)(F)F)c1 [Compound 105]
crabgrass, large; [5]
  Crabgrass, Large plant response rating: 100
crabgrass, large; [6]
  Crabgrass, Large plant response rating: 100
wheat; [5]
  Wheat plant response rating: 60
wheat; [6]
  Wheat plant response rating: 100
morningglory; [7]
  Morningglory plant response rating: 100
morningglory; [8]
  Morningglory plant response rating: 100
Ragweed [1]
  Plant response rating (scale of 0 to 100), Ragweed: 98
Ragweed [1]; [9]
  Ragweed plant response rating: 98
Ragweed [1]; [15]
  Ragweed plant response rating: 98
Ragweed [1]; [11]
  Ragweed plant response rating: 98
Soybean [2]
  Plant response rating (scale of 0 to 100), Soybean: 95
Soybean [2]; [9]
  Soybean plant response rating: 70
Soybean [2]; [15]
  Soybean plant response rating: 70
Soybean [2]; [11]
  Soybean plant response rating: 95
barnyardgrass
  Plant response rating (scale of 0 to 100), Barnyardgrass: 100
barnyardgrass; [12]
  Barnyardgrass plant response rating: 98
barnyardgrass; [15]
  Barnyardgrass plant response rating: 100
barnyardgrass; [11]
  Barnyardgrass plant response rating: 100
waterhemp
  Plant response rating (scale of 0 to 100), Waterhemp: 100
waterhemp; [9]
  Waterhemp plant response rating: 100
waterhemp; [15]
  Waterhemp plant response rating: 100
waterhemp; [11]
  Waterhemp plant response rating: 100
velvetleaf
  Plant response rating (scale of 0 to 100), Velvetleaf: 100
velvetleaf; [9]
  Velvetleaf plant response rating: 98
velvetleaf; [15]
  Velvetleaf plant response rating: 100
velvetleaf; [11]
  Velvetleaf plant response rating: 100
ryegrass, Italian
  Plant response rating (scale of 0 to 100 where 0 is no effect and 100 is complete control), Ryegrass, Italian: 5
  Ryegrass, Italian plant response rating: 10
ryegrass, Italian; [13]
  Plant response rating, Ryegrass, Italian: 45
ryegrass, Italian; [14]
  Plant response rating, Ryegrass, Italian: 30
corn
  Plant response rating (scale of 0 to 100 where 0 is no effect and 100 is complete control), Corn: 15
  Corn plant response rating: 40
corn; [13]
  Plant response rating, Corn: 85
corn; [14]
  Plant response rating, Corn: 60
foxtail, giant
  Plant response rating (scale of 0 to 100 where 0 is no effect and 100 is complete control), Foxtail, Giant: 15
  Foxtail, Giant plant response rating: 40
foxtail, giant; [13]
  Plant response rating, Foxtail, Giant: 85
foxtail, giant; [14]
  Plant response rating, Foxtail, Giant: 75
johnsongrass
  Plant response rating (scale of 0 to 100 where 0 is no effect and 100 is complete control), Johnsongrass: 5
  Johnsongrass plant response rating: 35
johnsongrass; [13]
  Plant response rating, Johnsongrass: 75
johnsongrass; [14]
  Plant response rating, Johnsongrass: 45
nutsedge, yellow
  Plant response rating (scale of 0 to 100 where 0 is no effect and 100 is complete control), Nutsedge, Yellow: 5
  Nutsedge, Yellow plant response rating: 5
nutsedge, yellow; [13]
  Plant response rating, Nutsedge, Yellow: 40
nutsedge, yellow; [14]
  Plant response rating, Nutsedge, Yellow: 20
Ragweed [3]
  Plant response rating (scale of 0 to 100 where 0 is no effect and 100 is complete control), Ragweed: 30
  Ragweed plant response rating: 40
Ragweed [3]; [13]
  Plant response rating, Ragweed: 80
Ragweed [3]; [14]
  Plant response rating, Ragweed: 65
Soybean [4]
  Plant response rating (scale of 0 to 100 where 0 is no effect and 100 is complete control), Soybean: 80
  Soybean plant response rating: 80
Soybean [4]; [13]
  Plant response rating, Soybean: 95
Soybean [4]; [14]
  Plant response rating, Soybean: 95
Oilseed rape
  Plant response rating (scale of 0 to 100 where 0 is no effect and 100 is complete control), Oilseed Rape: 45
  Oilseed Rape plant response rating: 50
Oilseed rape; [13]
  Plant response rating, Oilseed Rape: 90
Oilseed rape; [14]
  Plant response rating, Oilseed Rape: 85

— patent publication US20150105252A1, “SUBSTITUTED PYRAZOLES AS HERBICIDES” (E I DU PONT DE NEMOURS AND COMPANY, priority 2013, published 2015)
